Results taken from patent publication US20120258956A1, “USE OF A SPIROLIDE, ANALOGUES AND DERIVATIVES FOR TREATING AND/OR PREVENTING PATHOLOGICAL CONDITIONS LINKED TO THE TAU AND BETA-AMYLOID PROTEINS” (priority 2009, published 2012).

Assays:
cortical neurones = assay: Alamar Blue cellular viability assay in primary cortical cultures; assay type: cell-based, mouse; details: 72 hours in culture
Text: (§1) In order to carry out the experiments of the present invention, either an in vitro cortical neuronal model with simultaneous overexpression of tau and β-amyloid, obtained from a model of Alzheimer's disease in triple-transgenic (3×Tg-AD or 3×Tg) mice, obtainable via the detailed procedure in the international patent application WO2003/053136 and provided by the title holders of this application, or an in vitro cortical neuronal model obtained from non-transgenic (No-Tg) mice.
Primary cortical cultures in the embodiment of the invention were obtained from 3×Tg-AD mouse embryos of 15-17 days gestation and the wild cultures were obtained from non 3×Tg control mouse embryos of the same strain. The effect of the compounds used in this invention on cellular viability was estimated by a fluorescence assay using the Alamar Blue viability indicator. To carry out the assay, primary cortical cultures seeded on 96-well plates were used. The neuronal cells were incubated in the culture medium with the spirolide of the present invention at different concentrations dissolved in dimethyl sulfoxide and the effect on neuronal viability was determined at different treatment times in vitro. The maximum concentration of 13-desmethyl spirolide evaluated was 100 nM and the concentration of Alamar blue was 10%. The volume of the reaction used was 200 μl. Fluorescence was measured at wavelengths of 530 nm (excitation) and 590 nm (emission).

[1] = test system: tau phosphorylated on Ser202; assay: Western blot of phosphorylated tau (AT8 antibody) in 3xTg-AD cortical neuronal cultures; assay type: cell-based, mouse; details: for levels of tau phosphorylated on Serine 202: day 3 to day 10 in vitro, untreated 3xTg 129.1
Text: as §1
The administration of 50 nM spirolide is equivalent to approximately 37 μg spirolide per kg of body weight. Intraperitoneal administration of an amount higher than 37 μg per kg body weight to a mouse reduced the levels of these proteins but produced toxic effects in the animal (Santokh et al., 2003. NeuroToxicology, 24: 593-604), however, the oral toxicity of spirolides is 1 mg per kg body weight.
For the determination of the effect of the spirolide compound of the present invention on the expression of tau and beta amyloid, the Western blot techniques were used. The primary neuronal cultures were incubated with the spirolide compound of the present invention added to the culture medium for a specific time. For the concentration of 50 nM, the treatment times were between 7 and 10 days in vitro and for other concentrations (0.1 to 25 nM) between 3 and 10 days in vitro. The cells were then processed following the usual protocols for Western blot. For Western blot studies, protein expression was evaluated using 6E10 anti-β-amyloid primary antibodies at a dilution of 1:500, AT8 anti-Tau (tau phosphorylated on Ser202, dilution 1:1000) and AT100 anti-tau (tau phosphorylated on Thr 212 and Ser214, dilution 1:1000).
For Western blot assays, neuronal cultures treated with the spirolide of the present invention were washed with cold phosphate buffer and lysed in 50 mM Tris-HCl buffer (pH 7.4) containing 150 mM NaCl, 1 mM EDTA, 1% Triton X-100, 2 mM DTT, 2.5 mM PMSF, 40 mg/ml aprotinin, 4 mg/ml leupeptin, 5 mM NaF, 1 mM Na3VO4, 1 mg/ml pepstatin A and 1 mg/ml benzamidine. Total protein concentration was determined by Bradford's method using bovine albumin as standard. Aliquots of cellular lysates containing 20 μg total protein were loaded in loading buffer (50 mM Tris-HCl, 100 mM dithiothreitol, 2% SDS, 20% glycerol, 0.05% bromophenol blue, pH 6.8), the proteins were separated by electrophoresis and transferred to PVDF membranes. The membranes were incubated with the primary antibodies, washed and then incubated with a secondary antibody bound to HRP. Immunoreactivity was detected by chemiluminescence. The same membranes were reincubated with an anti-β-actin primary antibody to carry out data correction for the sample protein content.

β-amyloid = assay: Western blot of intracellular β-amyloid (6E10 antibody) in 3xTg-AD cortical neuronal cultures; assay type: cell-based, mouse
Text: as §1
(§2) For the determination of the effect of the spirolide compound of the present invention on the expression of tau and beta amyloid, the Western blot techniques were used. […] For Western blot studies, protein expression was evaluated using 6E10 anti-β-amyloid primary antibodies at a dilution of 1:500, AT8 anti-Tau (tau phosphorylated on Ser202, dilution 1:1000) and AT100 anti-tau (tau phosphorylated on Thr 212 and Ser214, dilution 1:1000).
(§3) For Western blot assays, neuronal cultures treated with the spirolide of the present invention were washed with cold phosphate buffer and lysed in 50 mM Tris-HCl buffer (pH 7.4) containing 150 mM NaCl, 1 mM EDTA, 1% Triton X-100, 2 mM DTT, 2.5 mM PMSF, 40 mg/ml aprotinin, 4 mg/ml leupeptin, 5 mM NaF, 1 mM Na3VO4, 1 mg/ml pepstatin A and 1 mg/ml benzamidine. Total protein concentration was determined by Bradford's method using bovine albumin as standard. […]

[2] = test system: tau phosphorylated on Thr212 and Ser214; assay: Western blot of phosphorylated tau (AT100 antibody) in 3xTg-AD cortical neuronal cultures; assay type: cell-based, mouse; details: 3xTg cultures, FIG. 3B, p<0.005, n=3
Text: as §1, §2, §3

total tau = assay: Western blot of total basal tau (Tau46 antibody) in control non-transgenic cortical neurones; assay type: cell-based, mouse; details: 100 nM
Procedure: The effect of spirolide on basal phosphorylation of tau was determined by Western blot techniques. An in vitro cortical neuronal model obtained from non-transgenic mice was used. Neuronal culture and sample processing was carried out in the same way as described in the previous example. The data obtained were corrected for the β-actin content of the samples.

[3] = administered intraperitoneally, rat and mouse; cited from earlier work
[4] = oral; cited from earlier work

13-desmethyl spirolide
Viability of cortical neurones (cortical neurones; 2.5 nM): 104.3 ± 1.2 % control | Viability of cortical neurones (cortical neurones; 5 nM): 104 ± 1.3 % control | Viability of cortical neurones (cortical neurones; 10 nM): 104.3 ± 1.4 % control | Viability of cortical neurones (cortical neurones; 25 nM): 104.3 ± 0.7 % control | Viability of cortical neurones (cortical neurones; 50 nM): 103.4 ± 0.5 % control | Viability of cortical neurones (cortical neurones; 100 nM): 102.1 ± 1.5 % control | hyperphosphorylation of the tau protein ([1]; 0.017 μg per kg body weight (approx. 0.023 nM)): continued to be reduced | levels of tau phosphorylated on Serine 202 ([1]; 3xTg cultures, 0.1 nM): 129.8 ± 1.7 % control | levels of tau phosphorylated on Serine 202 ([1]; 3xTg cultures, 0.5 nM): 61.7 ± 12.4 % control | levels of tau phosphorylated on Serine 202 ([1]; 3xTg cultures, 10 nM): 70.3 ± 4.7 % control | levels of tau phosphorylated on Serine 202 ([1]; 3xTg cultures, 25 nM): 89.1 ± 2.2 % control | tau phosphorylation (AT8, Ser202; Western blot quantification) ([1]; 3xTg cultures, FIG. 2B, p<0.05, n=3): significant reduction | β-amyloid protein (β-amyloid; 0.5 nM): reducing β-amyloid protein | overexpression of β-amyloid (Western blot quantification, 6E10) (β-amyloid; 3xTg cultures, FIG. 1B, p<0.005 vs untreated transgenic cultures, n=3): significant reduction | tau phosphorylation (AT100, Thr212 and Ser214; Western blot quantification) [2]: significant reduction | total basal tau levels in control neurones (total tau): 139.9 ± 27.3 % control | total basal tau levels in control neurones (total tau; listed as spirolide): did not affect | concentration causing toxic effects [3]: 37-40 μg/kg body weight | toxicity when administered orally [4]: not toxic
